Source: patent publication US12655169B2, “Arabinose and preparation and use thereof” (THOMSON BIOTECH (XIAMEN) PTE. LTD., priority 2022, dated 2026)

Assays:
[1] = Saturation curve and crystallization curve of L-arabinose; format: physicochemical; conditions: for Crystallization mass concentration: cooling 1 °C/h, stirring 100 rpm; for Saturation mass concentration: water
Protocol: A round-bottom flask was plated in a constant-temperature box with temperature control. To a three-necked round-bottom flask (one flask mouth was plugged with a plastic stopper as a sampling mouth, one flask mouth was used for placing a stirrer, and one flask mouth was used for temperature sensing) were added a certain amount of ionized water and excessive L-arabinose crystal (prepared according to the method of Example 10). The mixture was stirred at 40° C., 49° C., 53° C., 58° C. and 65° C. for 3 h per temperature point, and then let stand for 4 h to allow the undissolved L-arabinose crystal to completely settle. Then the supernatant was collected and filtered through a microporous filter membrane (for filtration using a small injection needle in the constant-temperature box to eliminate the effect of temperature change). The resulting clear liquid was used for concentration determination. A saturation curve was plotted for arabinose: y=0.5927x+23.089 (correlation coefficient R 2=0.99) (see FIG. 4). Clear sugar liquids in which corresponding mass concentrations of L-arabinose were dissolved was prepared, then slowly cooled (1° C./h), and cooled at a constant rate (with stirring at 100 rpm). The crystallization temperature of the sugar liquids with different mass concentrations was observed and recorded. A crystallization curve was plotted for arabinose: y=0.4163x+40.413 (correlation coefficient R 2=1) (see FIG. 4 and Table 15-1).

[2] = In vitro osmotic pressure test (Vapro Pressure Osmometer); format: physicochemical; conditions: versus sorbitol solution at the same mass concentration 30%
Text: Instrument: Vapro Pressure Osmometer
Materials: L-Arabinose (Prepared According to the Method of Example 1); Sorbitol (Commercially Available Chinese Medicinal Agent)
Procedure: The 4 numbered solutions were each prepared according to the material proportions shown in Table 2 and stirred until they were all clear and transparent.

Compound: O[C@@H]1[C@@H](O)[C@@H](O)OC[C@@H]1O [L-arabinose, β-L-(+)-arabinose]
- Supersaturation coefficient ([1]; 40 °C): 1.233
- Crystallization mass concentration ([1]; 40 °C): 57.07%
- Supersaturation coefficient ([1]; 49 °C): 1.154
- Crystallization mass concentration ([1]; 49 °C): 60.81%
- Supersaturation coefficient ([1]; 53 °C): 1.134
- Crystallization mass concentration ([1]; 53 °C): 62.48%
- Supersaturation coefficient ([1]; 58 °C): 1.135
- Crystallization mass concentration ([1]; 58 °C): 64.56%
- Supersaturation coefficient ([1]; 65 °C): 1.097
- Crystallization mass concentration ([1]; 65 °C): 67.47%
- Saturation mass concentration ([1]; 40 °C): 46.3%
- Saturation mass concentration ([1]; 49 °C): 52.7%
- Saturation mass concentration ([1]; 53 °C): 55.1%
- Saturation mass concentration ([1]; 58 °C): 56.9%
- Saturation mass concentration ([1]; 65 °C): 61.5%
- Percent increase in osmotic pressure [2]: 22.8%
